Measured values: BindingDB's records for doi:10.1039/c4ob00214h (Lanzhou University, 2014)

How the values were obtained:
[1] = target: T1, Tyrosine-protein phosphatase non-receptor type 1 (Homo sapiens, UniProt P18031)
T1 sequence (P18031 whole entry): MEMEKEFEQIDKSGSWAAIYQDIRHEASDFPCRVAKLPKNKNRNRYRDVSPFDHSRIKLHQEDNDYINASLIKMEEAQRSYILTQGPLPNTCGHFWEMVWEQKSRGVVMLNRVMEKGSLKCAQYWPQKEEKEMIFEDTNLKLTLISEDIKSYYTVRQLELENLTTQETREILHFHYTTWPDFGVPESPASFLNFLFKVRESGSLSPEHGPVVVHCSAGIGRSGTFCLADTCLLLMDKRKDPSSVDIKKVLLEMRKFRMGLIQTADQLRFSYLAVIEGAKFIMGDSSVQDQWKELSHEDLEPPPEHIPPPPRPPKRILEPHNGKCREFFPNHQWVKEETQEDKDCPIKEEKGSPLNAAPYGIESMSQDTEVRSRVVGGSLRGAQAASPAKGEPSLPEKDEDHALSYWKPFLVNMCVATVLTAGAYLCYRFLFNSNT

[2] = target: T2, Tyrosine-protein phosphatase non-receptor type 2 (Homo sapiens, UniProt P17706)
T2 sequence (P17706 whole entry): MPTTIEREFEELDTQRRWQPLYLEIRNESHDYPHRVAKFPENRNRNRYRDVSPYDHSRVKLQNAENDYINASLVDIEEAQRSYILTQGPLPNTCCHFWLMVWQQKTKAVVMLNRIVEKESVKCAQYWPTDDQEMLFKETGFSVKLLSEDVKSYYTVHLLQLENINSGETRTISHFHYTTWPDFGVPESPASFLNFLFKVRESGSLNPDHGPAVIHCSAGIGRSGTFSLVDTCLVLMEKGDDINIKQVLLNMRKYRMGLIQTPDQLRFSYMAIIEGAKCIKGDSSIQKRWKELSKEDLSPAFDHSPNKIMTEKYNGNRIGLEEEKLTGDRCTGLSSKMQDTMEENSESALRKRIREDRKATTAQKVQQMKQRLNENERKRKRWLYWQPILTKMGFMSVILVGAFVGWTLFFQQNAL

[3] = target: T3, M-phase inducer phosphatase 2 (Homo sapiens, UniProt P30305)
T3 sequence (P30305 whole entry): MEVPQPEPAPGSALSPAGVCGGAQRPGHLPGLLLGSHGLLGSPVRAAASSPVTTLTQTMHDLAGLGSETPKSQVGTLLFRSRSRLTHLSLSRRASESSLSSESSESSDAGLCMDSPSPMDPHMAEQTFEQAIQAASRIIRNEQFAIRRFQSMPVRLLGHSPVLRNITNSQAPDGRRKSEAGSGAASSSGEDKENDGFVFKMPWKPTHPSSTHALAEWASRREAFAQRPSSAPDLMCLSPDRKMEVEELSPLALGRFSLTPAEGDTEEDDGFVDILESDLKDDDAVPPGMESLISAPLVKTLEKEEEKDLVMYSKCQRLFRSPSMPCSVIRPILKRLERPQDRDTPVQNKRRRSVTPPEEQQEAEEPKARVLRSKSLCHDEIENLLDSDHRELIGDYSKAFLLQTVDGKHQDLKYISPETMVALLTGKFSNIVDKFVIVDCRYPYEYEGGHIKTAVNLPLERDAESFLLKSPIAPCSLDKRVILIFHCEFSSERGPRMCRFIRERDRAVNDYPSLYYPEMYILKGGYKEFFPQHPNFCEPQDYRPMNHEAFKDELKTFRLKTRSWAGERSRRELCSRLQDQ

[4] = target: Tyrosine-protein phosphatase non-receptor type 6 (Homo sapiens, UniProt P29350)
[5] = target: T4, Tyrosine-protein phosphatase non-receptor type 11 (Homo sapiens, UniProt Q06124)
T4 sequence (Q06124 whole entry): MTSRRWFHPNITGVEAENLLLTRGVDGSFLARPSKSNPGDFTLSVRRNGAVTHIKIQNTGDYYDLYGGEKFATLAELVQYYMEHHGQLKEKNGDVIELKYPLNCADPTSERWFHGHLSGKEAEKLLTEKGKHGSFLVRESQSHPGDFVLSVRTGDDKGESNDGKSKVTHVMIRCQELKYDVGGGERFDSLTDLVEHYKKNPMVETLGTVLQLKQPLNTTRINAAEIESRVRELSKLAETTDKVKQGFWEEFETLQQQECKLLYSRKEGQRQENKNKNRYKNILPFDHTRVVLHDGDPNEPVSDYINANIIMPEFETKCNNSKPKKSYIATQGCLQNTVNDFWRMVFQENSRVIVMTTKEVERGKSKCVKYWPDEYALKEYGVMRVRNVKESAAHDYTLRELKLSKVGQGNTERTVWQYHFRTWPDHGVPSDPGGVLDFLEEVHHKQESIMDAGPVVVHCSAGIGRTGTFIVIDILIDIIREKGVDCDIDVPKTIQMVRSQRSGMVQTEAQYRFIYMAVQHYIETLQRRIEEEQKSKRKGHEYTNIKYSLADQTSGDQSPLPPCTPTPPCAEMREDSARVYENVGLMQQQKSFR

Sequence of Tyrosine-protein phosphatase non-receptor type 6 (P29350 whole entry): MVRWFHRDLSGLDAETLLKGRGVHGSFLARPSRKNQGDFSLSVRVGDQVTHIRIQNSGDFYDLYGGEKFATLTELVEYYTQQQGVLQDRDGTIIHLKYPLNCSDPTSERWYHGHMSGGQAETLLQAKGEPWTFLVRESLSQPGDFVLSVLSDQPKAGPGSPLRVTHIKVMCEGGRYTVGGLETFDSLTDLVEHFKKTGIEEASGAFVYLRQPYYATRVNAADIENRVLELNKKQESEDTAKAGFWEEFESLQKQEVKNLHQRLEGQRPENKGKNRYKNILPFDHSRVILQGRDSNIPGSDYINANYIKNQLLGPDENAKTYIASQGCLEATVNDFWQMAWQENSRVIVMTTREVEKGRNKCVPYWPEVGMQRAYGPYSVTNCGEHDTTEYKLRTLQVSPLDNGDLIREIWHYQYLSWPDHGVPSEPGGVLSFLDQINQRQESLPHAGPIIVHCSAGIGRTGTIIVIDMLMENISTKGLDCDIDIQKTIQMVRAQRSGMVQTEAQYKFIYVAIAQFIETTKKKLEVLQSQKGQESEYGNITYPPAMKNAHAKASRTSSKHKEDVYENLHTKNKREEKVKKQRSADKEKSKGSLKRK

Compound | IC50 [1] | IC50 [2] | IC50 [3] | IC50 [4] | IC50 [5]
CCCCCCCCCCCCC/C=C/[C@@]12C(=O)O[C@@H](C)[C@@H]1[C@H]1C(=CC2CCCCCCCCCCCC)C(=O)O[C@H]1C (stereo partly drawn) [(1R,2S,3S,8R,9S,12S)-8-dodecyl-3,12-dimethyl-9-[(1E)-pentadec-1-en-1-yl]-4,11-dioxatricyclo[7.3.0.0,⁶]dodec-6-ene-5,10-dione (7)] | 4.27 µM | 31.8 µM | 3.93 µM | – | –
CCCCCCCCCCCC/C=C/[C@@]12C(=O)O[C@@H](C)[C@@H]1[C@H]1C(=C[C@H]2CCCCCCCCCCCC)C(=O)O[C@H]1C [(1R,2S,3S,8R,9S,12S)-8-dodecyl-3,12-dimethyl-9-[(1E)-tetradec-1-en-1-yl]-4,11-dioxatricyclo[7.3.0.0,⁶]dodec-6-ene-5,10-dione (6)] | 3.25 µM | 13.2 µM | 2.34 µM | – | –
CCCCCCCCCCCC[C@@H]1C=C2C(=O)O[C@@]3(C)O[C@@]4(C)OC(=O)[C@]1(CO)[C@H]4[C@@H]23 [(1R,6R,7S,10S,11R,12S)-6-dodecyl-7-(hydroxymethyl)-1,10-dimethyl-2,9,13-trioxatetracyclo[8.2.1.0⁴,.0⁷,]tridec-4-ene-3,8-dione (15)] | 20.4 µM | 19.8 µM | 17 µM | – | –
CCCCCCCCCCCC[C@@H]1C=C2C(=O)O[C@@]3(C)O[C@@]4(C)OC(=O)[C@]1(C=O)[C@H]4[C@@H]23 [(1S,4S,5R,10R,11S,12R)-5-dodecyl-1,10-dimethyl-3,8-dioxo-2,9,13-trioxatetracyclo[8.2.1.0⁴,.0⁷,]tridec-6-ene-4-carbaldehyde (14)] | 6 µM | 9.38 µM | 8.33 µM | – | –
CCCCCCCCCCCCC/C=C/[C@@]12C(=O)O[C@@H](C)[C@@H]1[C@H](C(C)=O)C(C(=O)O)=C[C@H]2CCCCCCCCCCCC [(3S,3aR,4S,7R,7aS)-4-acetyl-7-dodecyl-3-methyl-1-oxo-7a-[(1E)-pentadec-1-en-1-yl]-1,3,3a,4,7,7a-hexahydro-2-benzofuran-5-carboxylic acid (9)] | 0.27 µM | 2.55 µM | 0.22 µM | 3.86 µM | 3.13 µM
CCCCCCCCCCCCC/C=C/[C@@]12C(=O)O[C@@H](C)[C@@H]1[C@H](C(C)=O)C(C(=O)O)=CC2CCCCCCCCCCCC (stereo partly drawn) [(3S,3aR,4S,7aS)-4-acetyl-7-dodecyl-3-methyl-1-oxo-7a-[(1E)-pentadec-1-en-1-yl]-1,3,3a,4,7,7a-hexahydro-2-benzofuran-5-carboxylic acid (10)] | 0.27 µM | 4.73 µM | 0.2 µM | 4.41 µM | 1.71 µM
CCCCCCCCCCCC/C=C/[C@]12C(=O)O[C@]3(C)O[C@]4(C)OC(=O)C(=C[C@H]1CCCCCCCCCCCC)[C@@H]4[C@@H]32 [Paracaseolide A (13)] | 1.5 µM | 6.01 µM | 2.34 µM | – | –
